Reference: publication PMC4259018 (MedChemComm, 2014)

Assays:
mPTPB = mPTPB (Mycobacterium tuberculosis, UniProt I6WXK4); assay: mPTPB catalyzed para-nitrophenyl phosphate hydrolysis inhibition; assay type: biochemical; conditions: for activity at 100 μM: 100 μM compound
[1] = system: mPTPB transfected Raw264.7 cells; assay type: cell-based; conditions: 10 μM
human PTPs = assay: Specificity for mPTPB over panel of human PTPs; assay type: biochemical; conditions: mPTPB versus PTP1B, SHP2, SHP1, PTP-Meg2, CD45, PTPε, VHR, Laforin

Chain of mPTPB (I6WXK4 whole entry, looked up): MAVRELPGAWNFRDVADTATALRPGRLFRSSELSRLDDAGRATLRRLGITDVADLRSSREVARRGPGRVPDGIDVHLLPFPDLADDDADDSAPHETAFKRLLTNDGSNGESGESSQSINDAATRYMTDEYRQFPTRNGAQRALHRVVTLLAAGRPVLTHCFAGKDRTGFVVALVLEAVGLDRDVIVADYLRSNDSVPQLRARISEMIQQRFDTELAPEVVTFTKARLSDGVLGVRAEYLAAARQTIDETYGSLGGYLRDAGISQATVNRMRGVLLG

**Q.** `O=C(O)c1cc2nc(-c3ccccc3)oc2cc1O` [compound 9] was tested. Which IC50 (mPTPB) did it give?
**A.** 20 to 30 µM

**Q.** How did the “activity at 100 μM” value (mPTPB; mPTPB) turn out when `O=C(O)CN1CC(=O)Oc2cc(O)c(C(=O)O)cc21` [compound 8] was run?
**A.** did not exhibit activity

**Q.** Which results are given for `O=C(O)c1cc2sc(Nc3cccc(Br)c3)nc2cc1O` [11h]?
**A.** Ki (mPTPB): 2.2 ± 0.1 µM; fold increase in potency in comparison to 11a (mPTPB): 12 fold; mode of inhibition (mPTPB; mPTPB, against pNPP): noncompetitive inhibitor; fold improvement of salicylic acid mPTPB inhibitory activity (mPTPB; mPTPB, versus salicylic acid): 27,500 fold; Akt phosphorylation ([1]; 5 μM, dose dependent): decreased; Erk1/2 phosphorylation ([1]; 5 μM, dose dependent): increased; fold preference for mPTPB against human PTPs (human PTPs): over 20 fold

**Q.** `O=C(O)c1cc2[nH]c(-c3ccccc3)nc2cc1O` [compound 10] was tested. Which IC50 (mPTPB) did it give?
**A.** 20 to 30 µM

**Q.** Which “fold more active than 11b” value (mPTPB) does the source give for `O=C(O)c1cc2sc(Nc3ccccc3)nc2cc1O` [11a] here?
**A.** 3 fold

**Q.** And the “effects on Erk1/2 and Akt phosphorylation” value [1]?
**A.** has no such effects

**Q.** For `O=C1COc2cc(O)c(C(=O)O)cc2N1` [compound 7], which “activity at 100 μM” value (mPTPB; mPTPB) is on record?
**A.** did not exhibit activity

**Q.** Which “activity at 100 μM” value (mPTPB; mPTPB) does the source give for `O=C(O)c1cc2[nH]c(=O)oc2cc1O` [compound 6] here?
**A.** did not exhibit activity
